Measured values from patent US10844032B2, “Substituted benzofuran, benzothiophene and indole Mcl-1 inhibitors” (Vanderbilt University, priority 2012, dated 2020).

Each compound was assayed against recombinant Mcl-1 (residues 172-327) (Homo sapiens (Human), UniProt Q07820) (assay: Bak peptide fluorescence polarization anisotropy competition assay, Mcl-1). Details: Table 2, Ki range; FITC-Bak peptide 10 nM, Mcl-1 14 nM; read-out: Ki for inhibition of Mcl-1.
Assay type: binding

recombinant Mcl-1 (residues 172-327), sequence (Q07820 172-327): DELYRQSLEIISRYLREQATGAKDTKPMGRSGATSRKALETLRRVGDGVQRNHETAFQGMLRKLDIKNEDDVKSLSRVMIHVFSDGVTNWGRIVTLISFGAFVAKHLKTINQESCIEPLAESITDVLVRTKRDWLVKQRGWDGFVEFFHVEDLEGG

Structure (SMILES) | Ki
CCn1nccc1-c1cccc2c(CCCOc3cc(C)c(Cl)c(C)c3)c(C(=O)NS(=O)(=O)c3ccccc3)[nH]c12 [Example 302, 3-(3-(4-chloro-3,5-dimethylphenoxy)propyl)-7-(1-ethyl-1H-pyrazol-5-yl)-N-(phenylsulfonyl)-1H-indole-2-carboxamide] | ≤ 100 nM
Cc1cc(OCCCc2c(C(=O)NS(=O)(=O)CCNC(=O)c3cccn3C)[nH]c3ccccc23)cc(C)c1Cl [Example 170, 3-(3-(4-chloro-3,5-dimethylphenoxy)propyl)-N-((2-(1-methyl-1H-pyrrole-2-carboxamido)ethyl)sulfonyl)-1H-indole-2-carboxamide] | ≤ 100 nM
Cc1cc(OCCCc2c(C(=O)NS(=O)(=O)CCNC(=O)C3CCCCC3)[nH]c3cc(Cl)ccc23)cc(C)c1Cl [Example 226, 6-chloro-3-(3-(4-chloro-3,5-dimethylphenoxy)propyl)-N-((2-(cyclohexanecarboxamido)ethyl)sulfonyl)-1H-indole-2-carboxamide] | ≤ 100 nM
Cc1cc(OCCCc2c(C(=O)NS(=O)(=O)c3ccccc3)[nH]c3c(-c4ccnn4C(C)C)cccc23)cc(C)c1Cl [Example 304, 3-(3-(4-chloro-3,5-dimethylphenoxy)propyl)-7-(1-isopropyl-1H-pyrazol-5-yl)-N-(phenylsulfonyl)-1H-indole-2-carboxamide] | ≤ 100 nM
Cc1ccncc1-c1cccc2c(CCCOc3cc(C)c(Cl)c(C)c3)c(C(=O)NS(=O)(=O)c3ccccc3)[nH]c12 [Example 89, 3-(3-(4-chloro-3,5-dimethylphenoxy)propyl)-7-(4-methylpyridin-3-yl)-N-(phenylsulfonyl)-1H-indole-2-carboxamide] | ≤ 100 nM

Same assay, conditions: read-out: Ki for inhibition of Mcl-1

Structure (SMILES) | Ki
CS(=O)(=O)NC(=O)c1[nH]c2ccccc2c1CCCOc1ccc(C(F)(F)F)cc1 [Example 34, N-(methylsulfonyl)-3-(3-(4-(trifluoromethyl)phenoxy)propyl)-1H-indole-2-carboxamide] | 10000 to 50000 nM
Cc1cc(OCCCc2c(C(=O)NS(=O)(=O)CCNC(=O)c3ccc4c(ccn4C)c3)[nH]c3cc(Cl)ccc23)cc(C)c1Cl [Example 236, 6-chloro-3-(3-(4-chloro-3,5-dimethylphenoxy)propyl)-N-((2-(1-methyl-1H-indole-5-carboxamido)ethyl)sulfonyl)-1H-indole-2-carboxamide] | 101 to 299 nM
Cc1cc(OCCCc2c(C(=O)NS(=O)(=O)C3CCN(C(=O)c4cccn4Cc4ccccc4)CC3)[nH]c3cc(Cl)ccc23)cc(C)c1Cl [Example 215, N-((1-(1-benzyl-1H-pyrrole-2-carbonyl)piperidin-4-yl)sulfonyl)-6-chloro-3-(3-(4-chloro-3,5-dimethylphenoxy)propyl)-1H-indole-2-carboxamide] | 301 to 500 nM
CS(=O)(=O)NC(=O)c1[nH]c2cc(Cl)ccc2c1CCCOc1ccccc1Br [Example 107, 3-(3-(2-bromophenoxy)propyl)-6-chloro-N-(methylsulfonyl)-1H-indole-2-carboxamide] | 1000 to 9990 nM
O=C(O)c1sc2c(-c3ccccc3)cccc2c1CCCOc1cccc2ccccc12 [Example 11, 3-(3-(naphthalen-1-yloxy)propyl)-7-phenylbenzo[b]thiophene-2-carboxylic acid] | 501 to 999 nM
CCc1cc(OCCCc2c(C(=O)NS(C)(=O)=O)[nH]c3ccccc23)ccc1Cl [Example 44, 3-(3-(4-chloro-3-ethylphenoxy)propyl)-N-(methylsulfonyl)-1H-indole-2-carboxamide] | 1000 to 9990 nM
CS(=O)(=O)NC(=O)c1[nH]c2ccccc2c1CCCOc1ccc2c(c1)CCCC2 [Example 38, N-(methylsulfonyl)-3-(3-((5,6,7,8-tetrahydronaphthalen-2-yl)oxy)propyl)-1H-indole-2-carboxamide] | 1000 to 9990 nM
Cc1cc(OCCCc2c(C(=O)NS(C)(=O)=O)n(C)c3cc(Cl)ccc23)cc(C)c1Cl [Example 268, 6-chloro-3-(3-(4-chloro-3,5-dimethylphenoxy)propyl)-1-methyl-N-(methylsulfonyl)-1H-indole-2-carboxamide] | 501 to 999 nM
Cc1cc(OCCCc2c(C(=O)NS(=O)(=O)c3ccc(C(=O)N4CCOCC4)n3C)[nH]c3cc(Cl)ccc23)cc(C)c1Cl [Example 267, 6-chloro-3-(3-(4-chloro-3,5-dimethylphenoxy)propyl)-N-((1-methyl-5-(morpholine-4-carbonyl)-1H-pyrrol-2-yl)sulfonyl)-1H-indole-2-carboxamide] | 101 to 299 nM
Cc1cc(OCCCc2c(C(=O)NS(=O)(=O)CCNC(=O)c3cccn3Cc3ccccc3)n(Cc3cccnc3)c3cc(Cl)ccc23)cc(C)c1Cl [Example 277, N-((2-(1-benzyl-1H-pyrrole-2-carboxamido)ethyl)sulfonyl)-6-chloro-3-(3-(4-chloro-3,5-dimethylphenoxy)propyl)-1-(pyridin-3-ylmethyl)-1H-indole-2-carboxamide] | 301 to 500 nM
Cc1cc(OCCCc2c(C(=O)NS(=O)(=O)CCNC(=O)c3cccc(Oc4ccccc4)c3)n(Cc3cccnc3)c3cc(Cl)ccc23)cc(C)c1Cl [Example 276, 6-chloro-3-(3-(4-chloro-3,5-dimethylphenoxy)propyl)-N-((2-(3-phenoxybenzamido)ethyl)sulfonyl)-1-(pyridin-3-ylmethyl)-1H-indole-2-carboxamide] | 301 to 500 nM
Cc1cc(OCCCc2c(C(=O)NS(=O)(=O)c3ccccc3)[nH]c3c(-c4cccnc4)cccc23)cc(C)c1Cl [Example 93, 3-(3-(4-chloro-3,5-dimethylphenoxy)propyl)-N-(phenylsulfonyl)-7-(pyridin-3-yl)-1H-indole-2-carboxamide] | 101 to 299 nM
Cc1ccc2c(CCCOc3cccc4ccccc34)c(C(=O)NS(C)(=O)=O)[nH]c2c1 [Example 118, 6-Methyl-N-(methylsulfonyl)-3-(3-(naphthalen-1-yloxy)propyl)-1H-indole-2-carboxamide] | 1000 to 9990 nM
Cc1cc(OCCCc2c(C(=O)NS(=O)(=O)CCNC(=O)c3cccn3-c3ccccc3)[nH]c3ccccc23)cc(C)c1Cl [Example 172, 3-(3-(4-chloro-3,5-dimethylphenoxy)propyl)-N-((2-(1-phenyl-1H-pyrrole-2-carboxamido)ethyl)sulfonyl)-1H-indole-2-carboxamide] | 101 to 299 nM
Cc1cc(OCCCc2c(C(=O)NS(=O)(=O)CCNC(=O)c3cccnc3)[nH]c3ccccc23)cc(C)c1Cl [Example 155, 3-(3-(4-chloro-3,5-dimethylphenoxy)propyl)-N-((2-(nicotinamido)ethyl)sulfonyl)-1H-indole-2-carboxamide] | 1000 to 9990 nM
Cc1cc(OCCCc2c(C(=O)NS(=O)(=O)c3ccc(-c4ccccc4)cc3)[nH]c3ccccc23)cc(C)c1Cl [Example 139, N-([1,1′-biphenyl]-4-ylsulfonyl)-3-(3-(4-chloro-3,5-dimethylphenoxy)propyl)-1H-indole-2-carboxamide] | 301 to 500 nM
Cc1cc(OCCCc2c(C(=O)NS(=O)(=O)c3ccccc3)n(C)c3cc(Cl)ccc23)cc(C)c1Cl [Example 269, 6-chloro-3-(3-(4-chloro-3,5-dimethylphenoxy)propyl)-1-methyl-N-(phenylsulfonyl)-1H-indole-2-carboxamide] | 301 to 500 nM
Cc1occc1C(=O)NCCS(=O)(=O)NC(=O)c1[nH]c2cc(Cl)ccc2c1CCCOc1cccc2ccccc12 [Example 229, 6-chloro-N-((2-(2-methylfuran-3-carboxamido)ethyl)sulfonyl)-3-(3-(naphthalen-1-yloxy)propyl)-1H-indole-2-carboxamide] | 301 to 500 nM
Cc1cc(OCCCc2c(C(=O)NS(=O)(=O)CCNC(=O)c3ccc4c(ccn4C)c3)[nH]c3ccccc23)cc(C)c1Cl [Example 196, 3-(3-(4-chloro-3,5-dimethylphenoxy)propyl)-N-((2-(1-methyl-1H-indole-5-carboxamido)ethyl)sulfonyl)-1H-indole-2-carboxamide] | 301 to 500 nM
Cc1cc(OCCCc2c(C(=O)NS(=O)(=O)CCNC(=O)Cc3cn(C)c4ccccc34)[nH]c3ccccc23)cc(C)c1Cl [Example 175, 3-(3-(4-chloro-3,5-dimethylphenoxy)propyl)-N-((2-(2-(1-methyl-1H-indol-3-yl)acetamido)ethyl)sulfonyl)-1H-indole-2-carboxamide] | 101 to 299 nM
O=C(O)c1oc2ccccc2c1CCc1cccc2ccccc12 [Example 23, 3-(2-(naphthalen-1-yl)ethyl)benzofuran-2-carboxylic acid] | 10000 to 50000 nM
CC(=O)NCCS(=O)(=O)NC(=O)c1[nH]c2ccccc2c1CCCOc1cc(C)c(Cl)c(C)c1 [Example 198, N-((2-acetamidoethyl)sulfonyl)-3-(3-(4-chloro-3,5-dimethylphenoxy)propyl)-1H-indole-2-carboxamide] | 501 to 999 nM
CS(=O)(=O)NC(=O)c1[nH]c2cccc(Cl)c2c1CCCOc1cccc2ccccc12 [Example 49, 4-chloro-N-(methylsulfonyl)-3-(3-(naphthalen-1-yloxy)propyl)-1H-indole-2-carboxamide] | 101 to 299 nM
Cc1cc(OCCCc2c(C(=O)NS(C)(=O)=O)sc3ccccc23)cc(C)c1Cl [Example 68, 3-(3-(4-chloro-3,5-dimethylphenoxy)propyl)-N-(methylsulfonyl)benzo[b]thiophene-2-carboxamide] | 1000 to 9990 nM
CC(=O)N1CCC(CS(=O)(=O)NC(=O)c2[nH]c3ccccc3c2CCCOc2cc(C)c(Cl)c(C)c2)CC1 [Example 210, N-(((1-acetylpiperidin-4-yl)methyl)sulfonyl)-3-(3-(4-chloro-3,5-dimethylphenoxy)propyl)-1H-indole-2-carboxamide] | 501 to 999 nM
CS(=O)(=O)NC(=O)c1[nH]c2cc(Cl)ccc2c1CCCOc1ccc(Cl)c2ccccc12 [Example 76, 6-chloro-3-(3-((4-chloronaphthalen-1-yl)oxy)propyl)-N-(methylsulfonyl)-1H-indole-2-carboxamide] | 301 to 500 nM
Cc1cc(OCCCc2c(C(=O)NS(=O)(=O)CCN(C/C=C/c3ccccc3)C/C=C/c3ccccc3)[nH]c3ccccc23)cc(C)c1Cl [Example 203, 3-(3-(4-chloro-3,5-dimethylphenoxy)propyl)-N-((2-(dicinnamylamino)ethyl)sulfonyl)-1H-indole-2-carboxamide] | 301 to 500 nM
